Legend:
P110 δ/Pi3K δ = P110 δ/Pi3K δ (Homo sapiens, UniProt O00329); experiment: Fluorescent (HTRF) determination of PI3K enzyme activity, δ isoform; assay type: biochemical; set-up: inhibition: dose or concentration left out as unconfirmed
Source text: Assay 1: Fluorescent determination of PI3Kinase Kinase enzyme activity
Phosphoinositide 3 kinases (PI3K) belong to a class of lipid kinases that play a critical role in the regulation of several key cellular processes. The PI3K are capable of phosphorylating the 3-hydroxy position of phosphoinositols thereby generating second messengers involved in downstream signalling events. The homogenous time resolved fluorescence (HTRF) assay allows detection of 3,4,5-triphosphate (PIP3) formed as a result of phosphorylation of phosphotidylinositol 4,5-biphosphate (PIP2) by PI3K isoforms such as α, β, γ or δ.
PI3K isoform activity for α, β, γ or δ was determined using a PI3K human HTRF™ Assay Kit (Millipore, Billerica, Mass.) with modifications. All incubations were carried out at room temperature. […] After the initial incubation, 5 μl/well of 400 μM ATP was added and incubated for an additional 30 minutes. Reaction was terminated by adding 5 μl/well stop solution (Millipore, Billerica, Mass.). Five microliters of detection mix (Millipore, Billerica, Mass.) were then added to each well and was incubated for 6-18 h in the dark. […] Data were analyzed using Graphpad Prism (Graphpad software; San Diego Calif.) for IC50 determination. Percent inhibition was calculated based on the values for the blank and enzyme controls.

Chain of P110 δ/Pi3K δ (O00329 whole entry, canonical isoform): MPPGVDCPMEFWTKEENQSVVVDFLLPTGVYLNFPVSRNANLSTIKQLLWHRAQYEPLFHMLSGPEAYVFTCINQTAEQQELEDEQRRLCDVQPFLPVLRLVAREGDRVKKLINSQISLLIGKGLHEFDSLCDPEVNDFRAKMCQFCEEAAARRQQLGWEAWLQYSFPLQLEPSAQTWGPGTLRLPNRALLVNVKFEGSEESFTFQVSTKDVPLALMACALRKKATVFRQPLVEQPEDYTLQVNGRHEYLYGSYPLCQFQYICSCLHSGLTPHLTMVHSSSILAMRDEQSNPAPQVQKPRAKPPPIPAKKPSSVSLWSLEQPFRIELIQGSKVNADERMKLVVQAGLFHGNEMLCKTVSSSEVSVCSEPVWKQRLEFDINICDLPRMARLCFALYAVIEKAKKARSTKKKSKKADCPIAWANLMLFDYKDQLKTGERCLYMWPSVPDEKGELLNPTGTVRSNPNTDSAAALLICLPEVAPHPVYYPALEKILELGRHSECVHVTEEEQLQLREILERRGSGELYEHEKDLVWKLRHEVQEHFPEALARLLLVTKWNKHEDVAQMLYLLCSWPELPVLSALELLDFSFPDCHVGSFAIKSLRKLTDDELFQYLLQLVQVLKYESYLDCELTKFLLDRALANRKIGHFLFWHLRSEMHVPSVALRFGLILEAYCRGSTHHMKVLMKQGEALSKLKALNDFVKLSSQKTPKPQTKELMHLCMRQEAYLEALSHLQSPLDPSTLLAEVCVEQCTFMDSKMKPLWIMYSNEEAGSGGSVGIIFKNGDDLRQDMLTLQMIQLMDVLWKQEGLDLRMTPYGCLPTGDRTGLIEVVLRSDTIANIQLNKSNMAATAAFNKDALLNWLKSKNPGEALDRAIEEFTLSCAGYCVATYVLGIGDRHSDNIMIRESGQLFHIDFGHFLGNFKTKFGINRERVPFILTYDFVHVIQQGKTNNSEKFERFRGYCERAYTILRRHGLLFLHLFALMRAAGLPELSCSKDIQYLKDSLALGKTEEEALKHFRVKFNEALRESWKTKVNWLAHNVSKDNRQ
Chain of P110 δ/Pi3K δ (P27986 whole entry partner, canonical isoform): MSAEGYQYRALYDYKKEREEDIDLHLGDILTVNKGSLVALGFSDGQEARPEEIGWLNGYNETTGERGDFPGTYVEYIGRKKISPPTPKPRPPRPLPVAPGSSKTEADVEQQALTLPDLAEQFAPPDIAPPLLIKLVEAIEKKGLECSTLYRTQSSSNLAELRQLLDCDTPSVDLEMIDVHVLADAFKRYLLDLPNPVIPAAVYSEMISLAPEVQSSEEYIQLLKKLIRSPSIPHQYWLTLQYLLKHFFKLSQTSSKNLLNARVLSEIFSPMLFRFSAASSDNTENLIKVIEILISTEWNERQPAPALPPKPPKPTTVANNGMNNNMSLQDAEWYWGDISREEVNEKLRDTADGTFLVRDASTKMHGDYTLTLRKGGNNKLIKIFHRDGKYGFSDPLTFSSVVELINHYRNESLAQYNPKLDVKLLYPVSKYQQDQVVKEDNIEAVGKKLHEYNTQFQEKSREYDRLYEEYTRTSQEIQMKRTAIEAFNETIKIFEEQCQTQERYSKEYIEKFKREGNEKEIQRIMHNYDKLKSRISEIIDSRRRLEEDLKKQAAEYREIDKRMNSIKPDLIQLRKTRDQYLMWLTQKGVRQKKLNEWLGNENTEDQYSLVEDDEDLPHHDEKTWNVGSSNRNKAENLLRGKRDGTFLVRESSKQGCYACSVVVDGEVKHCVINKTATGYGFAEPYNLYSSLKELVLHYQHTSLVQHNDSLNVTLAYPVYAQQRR

With `Cl.O=c1c(-c2ccc(F)cc2)c(CN2CCOCC2)oc2ccc(Br)cc12` the melting point was 232 to 236 °C.
With `Cl.O=c1c(-c2ccccc2)c(CN2CCOCC2)oc2ccc(Br)cc12` the melting point was 229 to 230 °C.
Work on `Nc1ncnc2c1ncn2Cc1oc2ccccc2c(=O)c1-c1ccccc1` [Example 3, 2-[(6-Amino-9H-purin-9-yl)methyl]-3-phenyl-4H-chromen-4-one] yielded an inhibition at 1 µM (P110 δ/Pi3K δ) of less than 50% and a melting point of 173 to 175 °C.
Work on `Cl.O=c1c(-c2ccccc2)c(CN2CCOCC2)oc2ccccc12` [Example 4a, 2-(Morpholinomethyl)-3-phenyl-4H-chromen-4-one hydrochloride] yielded an inhibition at 1 µM (P110 δ/Pi3K δ) of less than 50% and a melting point of 208 to 209 °C.
Work on `O=c1c(-c2ccccc2)c(Cn2cnc3ccccc32)oc2ccc(Br)cc12` [Example 5, 2-[(1H-Benzo[d]imidazol-1-yl)methyl]-6-bromo-3-phenyl-4H-chromen-4-one] yielded a melting point of 192 to 197 °C.
Compound `Cc1cccc2c1ncn2Cc1oc2ccc(Br)cc2c(=O)c1-c1ccccc1` [Example 6, 6-Bromo-2-[(4-methyl-1H-benzo[d]imidazol-1-yl)methyl]-3-phenyl-4H-chromen-4-one] has an inhibition at 1 µM (P110 δ/Pi3K δ) of less than 50% and a melting point of 176 to 179 °C.
`O=c1c(-c2ccccc2)c(Cn2cnc3ccccc32)oc2ccccc12` [Example 7, 2-[(1H-benzo[d]imidazol-1-yl)methyl]-3-phenyl-4H-chromen-4-one] gave an inhibition at 1 µM (P110 δ/Pi3K δ) of less than 50% and a melting point of 186 to 191 °C.
With `Cc1cccc2c1ncn2Cc1oc2ccccc2c(=O)c1-c1ccccc1` [Example 8, 2-[(4-methyl-1H-benzo[d]imidazol-1-yl)methyl]-3-phenyl-4H-chromen-4-one] the melting point was 204 to 208 °C.
`O=c1c(-c2ccccc2)c(Cn2cnc3c(Cl)ncnc32)oc2ccccc12` [Example 9, 2-[(6-Chloro-9H-purin-9-yl)methyl]-3-phenyl-4H-chromen-4-one] gave an inhibition at 1 µM (P110 δ/Pi3K δ) of less than 50% and a melting point of 187 to 190 °C.
For `O=c1c(-c2ccccc2)c(CSc2ncnc3[nH]cnc23)oc2ccccc12` [Example 11, 2-((9H-Purin-6-ylthio)methyl)-3-phenyl-4H-chromen-4-one], the inhibition at 1 µM (P110 δ/Pi3K δ) was less than 50% and the melting point was 208 to 209 °C.
In the case of `O=c1c(-c2ccccc2)c(Cn2ccnc2)oc2ccccc12` [Example 12, 2-[(1H-Imidazol-1-yl)methyl]-3-phenyl-4H-chromen-4-one], the inhibition at 1 µM (P110 δ/Pi3K δ) is reported as less than 50% and the melting point is reported as 168 to 171 °C.
Compound `O=c1c(-c2ccccc2)c(CSc2ncnc3[nH]cnc23)oc2ccc(Br)cc12` [Example 13, 2-[(9H-Purin-6-ylthio)methyl]-6-bromo-3-phenyl-4H-chromen-4-one] has an inhibition at 1 µM (P110 δ/Pi3K δ) of less than 50% and a melting point of 214 to 218 °C.
In the case of `Nc1ncnc2c1cnn2Cc1oc2ccc(Br)cc2c(=O)c1-c1ccccc1` [Example 14, 2-((4-Amino-1H-pyrazolo[3,4-d]pyrimidin-1-yl)methyl)-6-bromo-3-phenyl-4H-chromen-4-one], the inhibition at 1 µM (P110 δ/Pi3K δ) is reported as less than 50% and the melting point is reported as 236 to 240 °C.
`Nc1ncnc2c1ncn2Cc1oc2ccc(Br)cc2c(=O)c1-c1ccc(F)cc1` [Example 15, 2-[(6-Amino-9H-purin-9-yl)methyl]-6-bromo-3-(4-fluorophenyl)-4H-chromen-4-one] gave an inhibition at 1 µM (P110 δ/Pi3K δ) of less than 50% and a melting point of 238 to 242 °C.
`Nc1ncnc2c1ncn2Cc1oc2ccccc2c(=O)c1-c1ccc(F)cc1` [Example 16, 2-[(6-Amino-9H-purin-9-yl)methyl]-3-(4-fluorophenyl)-4H-chromen-4-one] showed an inhibition at 1 µM (P110 δ/Pi3K δ) of less than 50% and a melting point of 212 to 216 °C.
Compound `Cl.O=c1c(-c2ccc(F)cc2)c(CN2CCOCC2)oc2ccccc12` [Example 18a, 3-(4-fluorophenyl)-2-(morpholinomethyl)-4H-chromen-4-one hydrochloride] has an inhibition at 1 µM (P110 δ/Pi3K δ) of less than 50% and a melting point of 225 to 229 °C.
With `Cc1ccccc1-c1c(Cn2cnc3c(N)ncnc32)oc2ccc(Br)cc2c1=O` [Example 19, 2-[(6-Amino-9H-purin-9-yl)methyl]-6-bromo-3-o-tolyl-4H-chromen-4-one] the melting point was 252 to 255 °C.
With `Cn1c(=O)c2c(ncn2Cc2oc3ccc(Br)cc3c(=O)c2-c2ccccc2)n(C)c1=O` [Example 20, 7-[(6-Bromo-4-oxo-3-phenyl-4H-chromen-2-yl)methyl]-1,3-dimethyl-1H-purine-2,6(3H,7H)-dione] the inhibition at 1 µM (P110 δ/Pi3K δ) was less than 50% and the melting point was 253 to 255 °C.
In the case of `CC(c1oc2ccc(Br)cc2c(=O)c1-c1ccccc1)n1cnc2c(N)ncnc21` (stereo not drawn) [Example 21, 2-(1-(6-Amino-9H-purin-9-yl)ethyl)-6-bromo-3-phenyl-4H-chromen-4-one], the inhibition at 1 µM (P110 δ/Pi3K δ) is reported as less than 50% and the melting point is reported as 230 to 231 °C.
For `CC(Sc1ncnc2[nH]cnc12)c1oc2ccc(Br)cc2c(=O)c1-c1ccccc1` (stereo not drawn) [Example 22, 2-(1-(9H-Purin-6-ylthio)ethyl)-6-bromo-3-phenyl-4H-chromen-4-one], the inhibition at 1 µM (P110 δ/Pi3K δ) was less than 50% and the melting point was 234 to 237 °C.
`C[C@H](Nc1ncnc2[nH]cnc12)c1oc2ccc(Br)cc2c(=O)c1-c1ccccc1` [Example 24, (S)-2-(1-(9H-purin-6-ylamino)ethyl)-6-bromo-3-phenyl-4H-chromen-4-one] gave an inhibition at 1 µM (P110 δ/Pi3K δ) of less than 50% and a melting point of 151 to 154 °C.
Compound `O=c1c(-c2ccccc2)c(CNc2ncnc3[nH]cnc23)oc2ccc(Br)cc12` [Example 25, 2-((9H-purin-6-ylamino)methyl)-6-bromo-3-phenyl-4H-chromen-4-one] has an inhibition at 1 µM (P110 δ/Pi3K δ) of less than 50% and a melting point of 151 to 154 °C.
Work on `CC(c1oc2ccc(Br)cc2c(=O)c1-c1ccccc1)n1ncc2c(N)ncnc21` (stereo not drawn) [Example 26, 2-(1-(4-amino-1H-pyrazolo[3,4-d]pyrimidin-1-yl)ethyl)-6-bromo-3-phenyl-4H-chromen-4-one] yielded an inhibition at 1 µM (P110 δ/Pi3K δ) of less than 50% and a melting point of 239 to 240 °C.
For `COc1ccc2oc(Cn3cnc4c(N)ncnc43)c(-c3ccccc3)c(=O)c2c1` [Example 27, 2-((6-Amino-9H-purin-9-yl)methyl)-6-methoxy-3-phenyl-4H-chromen-4-one], the inhibition at 1 µM (P110 δ/Pi3K δ) was less than 50% and the melting point was 197 to 198 °C.
For `COc1cc(-c2nn(C(C)c3oc4ccccc4c(=O)c3-c3cccc(F)c3)c3ncnc(N)c23)ccc1F` (stereo not drawn) [Example 82, 2-(1-(4-amino-3-(4-fluoro-3-methoxyphenyl)-1H-pyrazolo[3,4-d]pyrimidin-1-yl)ethyl)-3-(3-fluorophenyl)-4H-chromen-4-one], the inhibition (P110 δ/Pi3K δ) was 50 to 100%.
For `CC(c1oc2ccccc2c(=O)c1-c1cccc(F)c1)n1nc(-c2ccc(F)c(O)c2)c2c(N)ncnc21` (stereo not drawn) [Example 82a, 2-(1-(4-amino-3-(4-fluoro-3-hydroxyphenyl)-1H-pyrazolo[3,4-d]pyrimidin-1-yl)ethyl)-3-(3-fluorophenyl)-4H-chromen-4-one], the melting point was 241 to 244 °C.
Compound `COc1cc(F)ccc1-c1nn(C(C)c2oc3ccccc3c(=O)c2-c2cccc(F)c2)c2ncnc(N)c12` (stereo not drawn) [Example 90, 2-(1-(4-amino-3-(4-fluoro-2-methoxyphenyl)-1H-pyrazolo[3,4-d]pyrimidin-1-yl)ethyl)-3-(3-fluorophenyl)-4H-chromen-4-one] has an inhibition (P110 δ/Pi3K δ) of less than 50%.
For `CC(c1oc2ccccc2c(=O)c1-c1cccc(F)c1)n1nc(-c2ccc(F)cc2O)c2c(N)ncnc21` (stereo not drawn) [Example 90a, 2-(1-(4-amino-3-(4-fluoro-2-hydroxyphenyl)-1H-pyrazolo[3,4-d]pyrimidin-1-yl)ethyl)-3-(3-fluorophenyl)-4H-chromen-4-one], the melting point was 235 to 237 °C.
`Cc1n[nH]c2cc(-c3nn(Cc4oc5ccccc5c(=O)c4-c4ccccc4)c4ncnc(N)c34)ccc12` [Example 92, 2-((4-amino-3-(3-methyl-1H-indazol-6-yl)-1H-pyrazolo[3,4-d]pyrimidin-1-yl)methyl)-3-phenyl-4H-chromen-4-one] showed an inhibition (P110 δ/Pi3K δ) of 50 to 100%.
`CC(c1oc2ccccc2c(=O)c1-c1cccc(F)c1)n1nc(-c2cc(F)c(O)c(F)c2)c2c(N)ncnc21` (stereo not drawn) [Example 126a, 2-(1-(4-amino-3-(3,5-difluoro-4-hydroxyphenyl)-1H-pyrazolo[3,4-d]pyrimidin-1-yl)ethyl)-3-(3-fluorophenyl)-4H-chromen-4-one] gave an inhibition (P110 δ/Pi3K δ) of less than 50%.
Compound `CC(C)Oc1ccc(-c2nn(C(C)c3oc4ccccc4c(=O)c3-c3cccc(F)c3)c3ncnc(N)c23)cc1F` (stereo not drawn) [Example 158, 2-(1-(4-amino-3-(3-fluoro-4-isopropoxyphenyl)-1H-pyrazolo[3,4-d]pyrimidin-1-yl)ethyl)-3-(3-fluorophenyl)-4H-chromen-4-one] has an inhibition (P110 δ/Pi3K δ) of 50 to 100% and an IC50 (P110 δ/Pi3K δ; read-out: P110 δ/ Pi3K δ IC 50 nM) of less than 250 nM.
`CC(c1oc2ccccc2c(=O)c1-c1cccc(F)c1)n1nc(-c2cncnc2)c2c(N)ncnc21` (stereo not drawn) [Example 160, 2-(1-(4-amino-3-(pyrimidin-5-yl)-1H-pyrazolo[3,4-d]pyrimidin-1-yl)ethyl)-3-(3-fluorophenyl)-4H-chromen-4-one] showed a melting point of 207 to 211 °C.
`CC(c1oc2ccccc2c(=O)c1-c1cccc(F)c1)n1nc(-c2cnn(C)c2)c2c(N)ncnc21` (stereo not drawn) [Example 164, 2-(1-(4-amino-3-(1-methyl-1H-pyrazol-4-yl)-1H-pyrazolo[3,4-d]pyrimidin-1-yl)ethyl)-3-(3-fluorophenyl)-4H-chromen-4-one] showed an inhibition (P110 δ/Pi3K δ) of less than 50%.
Work on `CCOc1ccc2cc(-c3nn(C(C)c4oc5ccccc5c(=O)c4-c4cccc(F)c4)c4ncnc(N)c34)ccc2c1` (stereo not drawn) [Example 175, 2-(1-(4-amino-3-(6-ethoxynaphthalen-2-yl)-1H-pyrazolo[3,4-d]pyrimidin-1-yl)ethyl)-3-(3-fluorophenyl)-4H-chromen-4-one] yielded a melting point of 286 to 290 °C.
